In patent US20060216327A1, “Multilayer coating for releasing biologically-active agents and method of making” (Bacterin, Inc., priority 2005, published 2006):

Experiment: Bupivacaine elution profile from coated stents of Example 4 in PBS flow chamber (HPLC)
Format: physicochemical
Settings: coated stent of Example 4 (calcium phosphate base layer + PVA polymer layer), 10 ml PBS per day
Procedure: An elution analysis was performed to assay release of bupivacaine over time from the coated stents of Example 4. An 18 mm long test specimen having a known surface area was cut from one of the coated stents of Example 4 and placed in a flow chamber. For 7 days, the test specimen was bathed with 10 ml per day of a phosphate buffered saline (PBS) solution. Every 24 hours, a 100 μl sample was taken of the 10 ml of PBS effluent collected over the preceding 24 hour period. The amount of bupivacaine in a 10 μl aliquot of the sample was quantified using a reverse-phase high pressure liquid chromatography (HPLC) system including a […] silica column. A solution of 30% acetonitrile and 70% buffered acid (985 ml of HPLC-grade water, 15 ml 1.0 M HCl, and 1.38 grams monobasic NaH2PO4) was employed as the mobile phase for the HPLC analysis. The data from the HPLC analysis was then normalized against the surface area of the test specimen and 10 ml volume of PBS effluent. Each data point represents the amount of bupivacaine eluted into the PBS solution during the proceeding 24-hour period, with each data point expressed in terms of in μg of bupivacaine released per cm^2 of coated stent surface. […]

## CCCCN1CCCCC1C(=O)Nc1c(C)cccc1C (centres unmarked) [bupivacaine]
Days 1-3, attributed to the polymer layer
  release of bupivacaine from coated stent into PBS solution: relative burst release
Days 4-7, attributed to erosion of the calcium phosphate base layer
  release of bupivacaine from coated stent into PBS solution: more gradual release
